Experimental data as given in patent publication US6436905B1, “Lipid-containing compositions and uses thereof” (Aston University, priority 1997, dated 2002).
One block for each compound: values may come before it.

Assay: Pulsating bubble surfactometry: minimum surface tension and time to reach it
Format: physicochemical
Text: One of the most important properties of the polymer/phospholipid complexes in accordance with the invention, especially for use as artificial lung surfactants, is the manner in which the surface tension varies with repetitive changes in surface area, and one test method that has been used is a pulsating bubble technique using a pulsating bubble surfactometer which consists of a sample chamber, pulsator unit and pressure-recording device. In a particular example, the sample chamber is made up of a capillary tube (ID 0.5 mm) inserted into a wider diameter tube (ID 1.5 mm). The latter is filled with the sample liquid and connected to a pulsator unit and pressure transducer. Air is drawn in through the capillary tube which acts as an airways forming a bubble of air within the sample chamber. This bubble serves as a model alveolus. […] Variations of pressure within the bubble, during each pulsation cycle, are measured by a transducer and combined with values of bubble volume to calculate changes in surface tension.
This pulsating bubble technique simulates to some extent the contraction and expansion of the alveoli sacks in the lungs and allows the surface tension to be assessed at minimum and maximum bubble volumes, and allows the effect of repeated expansion and compression cycles upon the adsorption of surface active components to be observed and quantified. This technique has been used as a model in vitro system for testing the efficacy of synthetic lung surfactants. Some results of tests carried out not only on the complexes prepared in accordance with the invention, but also on the membrane-forming phospholipids used and the polymers themselves, as well as on commercially available lung surfactants, are summarised in the Tables at the end of the present description.
Showing minimum Surface Tension (ST) value achieved and time to reach this level.
Pulse Rate (PR)=34, Temp=Room Temp & pH=7.0 unless otherwise stated.

[1] = DPPC sonicated 0.5, pH 7.3, 37.5 °C, pulse rate 30/min
[2] = 1.0%, pH 3.22, PR = 12, room temp
[3] = 1.0%, pH 7.0 (default), PR 34, room temp, 2 hrs hydration
[4] = 1.0%, pH 7.0 (default), PR 34, room temp, 12 hr hydration
[5] = 1.0%, pH 9.33, PR = 12, room temp
[6] = 1.0%, pH 12.00, PR 34, room temp
[7] = […], pH 7.0 (default), PR 34, room temp, Sonicated
[8] = DLPC (fresh) sonicated 0.5, pH 3.92, 24.0 °C, pulse rate 30/min
[9] = DLPC (fresh) 0.5, pH 7.12, 25.1 °C, pulse rate 30/min
[10] = DPPC (fresh) 0.5, pH 6.3, 24.9 °C, pulse rate 30/min
[11] = DPPC 0.5, pH 4.1, 21.9 °C, pulse rate 30/min
[12] = DPPC sonicated 0.5, pH 7.3, 23.1 °C, pulse rate 30/min
[13] = LALE 1.0%, pH 7.0 (default), PR 34, room temp
[14] = DPPC sonicated 0.5, pH 7.3, 24.0 °C, pulse rate 30/min
[15] = DPPC sonicated 0.5, pH 7.3, 37.5 °C, after 40 mins at room temp, pulse rate 30/min

SMILES: CCCCCCCCCCCC(=O)OC[C@H](COP(=O)([O-])OCC[N+](C)(C)C)OC(=O)CCCCCCCCCCC [dlf5]
Time to Develop (DLPC (fresh) 0.5, pH 5.47, 24.0 °C, pulse rate 30/min, first line): 20 min
Minimal ST <10 dynes/cm (DLPC (fresh) 0.5, pH 5.47, 24.0 °C, pulse rate 30/min, first line (time 20)): 12.57 dynes/cm
Time to Develop (DLPC (fresh) 0.5, pH 5.47, 24.0 °C, pulse rate 30/min, second line): 40 min
Minimal ST <10 dynes/cm (DLPC (fresh) 0.5, pH 5.47, 24.0 °C, pulse rate 30/min, second line (time 40)): 0.04 dynes/cm

SMILES: CCCCCCCCCCCCCCCC(=O)OC[C@H](COP(=O)([O-])OCC[N+](C)(C)C)OC(=O)CCCCCCCCCCCCCCC [dp7st]
Minimal ST <10 dynes/cm [1]: 26.58 dynes/cm
Time to Develop [1]: 2 min

SMILES: CCCCCCCCCCCC(=O)OC[C@H](COP(=O)([O-])OCC[N+](C)(C)C)OC(=O)CCCCCCCCCCC [DLPC, Dilaurylphosphatidylcholine]
Minimal ST [2]: 6.39 dynes/cm
Time to Develop [2]: 30 min
Minimal ST [3]: 6.82 dynes/cm
Time to Develop [3]: 20 min
Minimal ST [4]: 24.89 dynes/cm
Time to Develop [4]: 30 min
Minimal ST [5]: 15.66 dynes/cm
Time to Develop [5]: 30 min
Minimal ST [6]: 15.10 dynes/cm
Time to Develop [6]: 30 min
Minimal ST [7]: 9.60 dynes/cm
Time to Develop [7]: 30 min

SMILES: CCCCCCCCCCCC(=O)OC[C@H](COP(=O)([O-])OCC[N+](C)(C)C)OC(=O)CCCCCCCCCCC [dlfs4]
Minimal ST <10 dynes/cm [8]: 1.67 dynes/cm
Time to Develop [8]: 10 min

SMILES: CCCCCCCCCCCC(=O)OC[C@H](COP(=O)([O-])OCC[N+](C)(C)C)OC(=O)CCCCCCCCCCC [dlfs7]
Minimal ST <10 dynes/cm [9]: 18.25 dynes/cm
Time to Develop [9]: 20 min

SMILES: CCCCCCCCCCCCCCCC(=O)OC[C@H](COP(=O)([O-])OCC[N+](C)(C)C)OC(=O)CCCCCCCCCCCCCCC [dlpf6]
Minimal ST <10 dynes/cm [10]: 16.18 dynes/cm
Time to Develop [10]: 30 min

SMILES: CCCCCCCCCCCCOC(=O)CCCCCCCCCCC [LALE, Lauric acid lauryl ester]
Minimal ST [13]: 22.61 dynes/cm
Time to Develop [13]: 30 min

More lines, now with the values ahead:

Minimal ST <10 dynes/cm [11]: 5.31 dynes/cm
Time to Develop [11]: 30 min
SMILES: CCCCCCCCCCCCCCCC(=O)OC[C@H](COP(=O)([O-])OCC[N+](C)(C)C)OC(=O)CCCCCCCCCCCCCCC [dlpf4]

Minimal ST <10 dynes/cm [12]: 20.36 dynes/cm
Time to Develop [12]: 40 min
SMILES: CCCCCCCCCCCCCCCC(=O)OC[C@H](COP(=O)([O-])OCC[N+](C)(C)C)OC(=O)CCCCCCCCCCCCCCC [dlpf7]

Minimal ST <10 dynes/cm [14]: 9.99 dynes/cm
Time to Develop [14]: 20 min
Minimal ST <10 dynes/cm [15]: 27.95 dynes/cm
Time to Develop [15]: 40 min
SMILES: CCCCCCCCCCCCCCCC(=O)OC[C@H](COP(=O)([O-])OCC[N+](C)(C)C)OC(=O)CCCCCCCCCCCCCCC [dpf7s]
